Results published in patent publication US20090239840A1, “AMINO SUBSTITUTED DIARYL[a,d]CYCLOHEPTENE ANALOGS AS [sequence] AGONISTS AND METHODS OF TREATMENT OF NEUROPSYCHIATRIC DISORDERS” (ACADIA PHARMACEUTICALS, INC., priority 2003, published 2009).
Where two headings read alike, the source gives them in different places.

Legend:
muscarinic M1 receptor = molecular target: T1, muscarinic M1 receptor (Homo sapiens, UniProt P11229); experiment: R-SAT functional screen, M1; format: cell-based; details: for Emax: read-out: M1 eff (efficacy)
T1 construct: expressed in transfected cells
T1 sequence (P11229 1-460): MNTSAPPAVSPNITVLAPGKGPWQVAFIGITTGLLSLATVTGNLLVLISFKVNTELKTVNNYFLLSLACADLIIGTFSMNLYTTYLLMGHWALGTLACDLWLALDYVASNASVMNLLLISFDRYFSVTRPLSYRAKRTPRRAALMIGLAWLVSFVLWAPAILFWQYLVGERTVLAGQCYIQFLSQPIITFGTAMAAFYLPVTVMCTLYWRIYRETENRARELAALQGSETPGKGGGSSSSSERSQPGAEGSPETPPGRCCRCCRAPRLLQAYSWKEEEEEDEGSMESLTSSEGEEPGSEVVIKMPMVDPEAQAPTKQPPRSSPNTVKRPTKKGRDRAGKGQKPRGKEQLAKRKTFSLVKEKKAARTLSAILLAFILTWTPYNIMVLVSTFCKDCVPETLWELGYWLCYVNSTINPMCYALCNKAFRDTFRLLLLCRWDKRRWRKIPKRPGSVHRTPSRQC
Experimental: (§1) Several compounds disclosed herein were evaluated for activity at muscarinic receptors using Receptor Selection and Amplification Technology (R-SAT) as described in U.S. Pat. No. 5,707,798, the disclosure of which is incorporated herein by reference in its entirety. The efficacy (eff) and potency (expressed as pEC50) of these compounds are presented in Table 1 at M1, M2, and M3 receptors.

muscarinic M2 receptor = molecular target: T2, muscarinic M2 receptor (Homo sapiens, UniProt P08172); experiment: R-SAT functional screen, M2; format: cell-based; details: for Emax: read-out: M2 eff (efficacy)
T2 construct: expressed in transfected cells
T2 sequence (P08172 1-466): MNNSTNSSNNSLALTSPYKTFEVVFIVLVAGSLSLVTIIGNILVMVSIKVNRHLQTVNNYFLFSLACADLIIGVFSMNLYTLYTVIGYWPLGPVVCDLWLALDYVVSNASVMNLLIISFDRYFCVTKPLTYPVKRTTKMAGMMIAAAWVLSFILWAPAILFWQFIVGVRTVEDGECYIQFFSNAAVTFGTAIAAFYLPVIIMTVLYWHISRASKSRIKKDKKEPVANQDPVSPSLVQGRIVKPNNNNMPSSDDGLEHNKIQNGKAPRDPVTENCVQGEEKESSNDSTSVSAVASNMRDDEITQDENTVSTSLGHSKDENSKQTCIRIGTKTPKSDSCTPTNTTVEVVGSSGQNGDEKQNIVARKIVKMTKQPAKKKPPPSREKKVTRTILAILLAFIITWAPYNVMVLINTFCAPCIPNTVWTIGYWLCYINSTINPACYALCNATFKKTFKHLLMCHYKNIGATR
Experimental: as §1

[1] = R-SAT, read-out: M1 pEC50 (converted)
[2] = R-SAT, read-out: M2 pEC50 (converted)

## CCCCCCCCCc1ccc(C2=Nc3cc(Cl)ccc3Nc3ccccc32)cc1 [8-Chloro-11-(4-nonylphenyl)-5H-dibenzo[b,e][1,4]diazepine]
Muscarinic M1 receptor; R-SAT
  Emax: 1%
Muscarinic M2 receptor; R-SAT
  Emax: 8%

## Clc1ccc2c(c1)N=C(N1CCNCC1)c1cccnc1N2 [8-Chloro-5-piperazin-1-yl-1H-benzo[b]pyrido[2,3-e][1,4]diazepine]
Muscarinic M1 receptor; [1]
  EC50: 3160 nM
Muscarinic M1 receptor
  Emax: 51%
Muscarinic M2 receptor
  Emax: 7%

## Clc1cc2c(cc1Cl)Nc1ccccc1C(N1CCNCC1)=N2 [7,8-Dichloro-11-(piperazin-1-yl)-5H-dibenzo[b,e][1,4]diazepine]
Muscarinic M1 receptor; R-SAT
  Emax: 32%
Muscarinic M1 receptor; [1]
  EC50: 79.4 nM
Muscarinic M2 receptor; R-SAT
  Emax: 8%

## O=S(=O)(Oc1ccc2c(c1)C(N1CCNCC1)=Nc1cc(Cl)ccc1N2)C(F)(F)F [8-Chloro-2-(trifluoromethanesulfonyloxy)-11-(piperazin-1-yl)-5H-dibenzo[b,e][1,4]diazepine]
Muscarinic M1 receptor; R-SAT
  Emax: -2%
Muscarinic M2 receptor; R-SAT
  Emax: 16%

## Brc1ccc2c(c1)N=C(N1CCNCC1)CC(c1ccccc1)N2 (stereo not drawn) [7-Bromo-2-phenyl-4-(piperazine-1-yl)-2,3-dihydro-1H-benzo[b][1,4]diazepine]
Muscarinic M1 receptor; R-SAT
  Emax: 3%
Muscarinic M2 receptor; R-SAT
  Emax: 19%

## Clc1ccc2c(c1)N=C(N1CCNCC1)c1cc(Br)ccc1N2 [2-Bromo-8-chloro-11-(piperazin-1-yl)-5H-dibenzo[b,e][1,4]diazepine]
Muscarinic M1 receptor; R-SAT
  Emax: 6%
Muscarinic M2 receptor; R-SAT
  Emax: 19%

## Clc1ccc2c(c1)Nc1cc(Cl)ccc1C(N1CCNCC1)=N2 [3,7-Dichloro-11-(piperazin-1-yl)-5H-dibenzo[b,e][1,4]diazepine]
Muscarinic M1 receptor; R-SAT
  Emax: 15%
Muscarinic M2 receptor; R-SAT
  Emax: 19%

## Clc1ccc2c(c1)Nc1ccccc1N=C2N1CCNCC1 [3-Chloro-11-(piperazin-1-yl)-5H-dibenzo[b,e][1,4]diazepine]
Muscarinic M1 receptor; R-SAT
  Emax: 16%
Muscarinic M2 receptor; R-SAT
  Emax: 27%
Muscarinic M2 receptor; [2]
  EC50: 2000 nM

## O=S(=O)(Oc1ccc2c(c1)N=C(N1CCNCC1)c1ccccc1N2)C(F)(F)F [8-(Trifluoromethanesulfonyloxy)-11-(piperazin-1-yl)-5H-dibenzo[b,e][1,4]diazepine]
Muscarinic M1 receptor; R-SAT
  Emax: 19%
Muscarinic M2 receptor; R-SAT
  Emax: 62%
Muscarinic M2 receptor; [2]
  EC50: 2510 nM

## c1ccc2c(c1)N=C(N1CCCNCC1)c1ccccc1N2 [11-[1,4]Diazepam-1-yl-5H-dibenzo[b,e][1,4]diazepine]
Muscarinic M1 receptor
  Emax: 18%
Muscarinic M2 receptor
  Emax: 25%

## Clc1ccc2c(c1)N=C(N1CCNC(c3ccccc3)C1)c1ccccc1N2 (stereo not drawn) [8-Chloro-11-(3-phenyl-piperazin-1-yl)-5H-dibenzo[b,e][1,4]diazepine]
Muscarinic M1 receptor; R-SAT
  Emax: 5%
Muscarinic M2 receptor; R-SAT
  Emax: 23%

## Clc1ccc2c(c1)N=C(C1CCNCC1)c1ccccc1N2Cc1ccccc1 [5-Benzyl-8-chloro-11-(piperidin-4-yl)-5H-dibenzo[b,e][1,4]diazepine]
Muscarinic M1 receptor; R-SAT
  Emax: 12%
Muscarinic M2 receptor; R-SAT
  Emax: 5%

## Fc1ccc(C2=Nc3cc(Cl)ccc3Nc3ccccc32)cc1 [8-Chloro-11-(4-fluorophenyl)-5H-dibenzo[b,e][1,4]diazepine]
Muscarinic M1 receptor; R-SAT
  Emax: 13%
Muscarinic M2 receptor; R-SAT
  Emax: 4%

## Clc1ccc2c(c1)N=C(N1CCNCC1)c1cc(Cl)ccc1N2 [2,8-Dichloro-11-(piperazin-1-yl)-5H-dibenzo[b,e][1,4]diazepine]
Muscarinic M1 receptor; R-SAT
  Emax: 1%
Muscarinic M2 receptor; R-SAT
  Emax: 24%

## Clc1ccc2c(c1)N=C(N1CCCCC1)c1ccccc1N2 [8-Chloro-11-(piperidin-1-yl)-5H-dibenzo[b,e][1,4]diazepine]
Muscarinic M1 receptor; R-SAT
  Emax: 47%
Muscarinic M1 receptor; [1]
  EC50: 1580 nM
Muscarinic M2 receptor; R-SAT
  Emax: 9%

## CN1CCN(C2=Nc3cc(Cl)ccc3Oc3ccccc32)CC1 [8-Chloro-11-(4-methyl-piperazin-1-yl)-dibenzo[b,f][1,4]oxazepine]
Muscarinic M1 receptor; R-SAT
  Emax: 13%
Muscarinic M2 receptor; R-SAT
  Emax: 46%
Muscarinic M2 receptor; [2]
  EC50: 1580 nM

## Clc1ccc2c(c1)N=C(N1CCNCC1)c1ccccc1N2Cc1ccccc1
Muscarinic M1 receptor; R-SAT
  Emax: 41%
Muscarinic M1 receptor; [1]
  EC50: 501 nM
Muscarinic M2 receptor; R-SAT
  Emax: 16%

## Clc1ccc2c(c1)Nc1ccccc1C(N1CCNCC1)=N2 [7-Chloro-11-(piperazin-1-yl)-5H-dibenzo[b,e][1,4]diazepine]
Muscarinic M1 receptor; R-SAT
  Emax: 48%
Muscarinic M1 receptor; [1]
  EC50: 251 nM
Muscarinic M2 receptor; R-SAT
  Emax: 53%

## Clc1ccc2c(c1)N=C(N1CCNCC1)c1ccc(Cl)cc1N2 [3,8-Dichloro-11-(piperazin-1-yl)-5H-dibenzo[b,e][1,4]diazepine]
Muscarinic M1 receptor; R-SAT
  Emax: 34%
Muscarinic M1 receptor; [1]
  EC50: 126 nM
Muscarinic M2 receptor; R-SAT
  Emax: 58%
Muscarinic M2 receptor; [2]
  EC50: 1580 nM

## c1ccc2c(c1)N=C(N1CCNCC1)c1ccccc1N2 [11-(piperazin-1-yl)-5H-dibenzo[b,e][1,4]diazepine]
Muscarinic M1 receptor; R-SAT
  Emax: 38%
Muscarinic M1 receptor; [1]
  EC50: 794 nM
Muscarinic M2 receptor; R-SAT
  Emax: 70%
Muscarinic M2 receptor; [2]
  EC50: 2510 nM

## Clc1ccc2c(c1)C(N1CCNCC1)=Nc1ccccc1N2 [2-Chloro-11-(piperazin-1-yl)-5H-dibenzo[b,e][1,4]diazepine]
Muscarinic M1 receptor; R-SAT
  Emax: -5%
Muscarinic M2 receptor; R-SAT
  Emax: 8%

## Clc1ccc2c(c1)N=C(NC[C@H]1CCCN1)c1ccccc1N2 [(8-Chloro-5H-dibenzo[b,e][1,4]diazepin-11-yl)-(R)-1-pyrrolidin-2-yl-methyl-amine]
Muscarinic M1 receptor; R-SAT
  Emax: 4%
Muscarinic M2 receptor; R-SAT
  Emax: 5%

## CN(C)CCNC1=Nc2ccccc2Nc2ccccc21 [N′-(5H-Dibenzo[b,e][1,4]diazepine-11-yl)-N,N-dimethyl-ethane-12-diamine]
Muscarinic M1 receptor; R-SAT
  Emax: 10%
Muscarinic M2 receptor; R-SAT
  Emax: 20%

## O=S(=O)(Oc1ccc2c(c1)C(N1CCNCC1)=Nc1ccccc1O2)C(F)(F)F [2-(Trifluoromethanesulfonyloxy)-11-(piperazin-1-yl)-5H-dibenzo[b,e][1,4]oxazepine]
Muscarinic M1 receptor; R-SAT
  Emax: -11%
Muscarinic M2 receptor; R-SAT
  Emax: 4%

## COc1ccc2c(c1)C(N1CCNCC1)=Nc1cc(Cl)ccc1N2 [8-Chloro-2-methoxy-11-(piperazin-1-yl)-5H-dibenzo[b,e][1,4]diazepine]
Muscarinic M1 receptor; R-SAT
  Emax: 7%
Muscarinic M2 receptor; R-SAT
  Emax: 7%

## Fc1ccc2c(c1)N=C(N1CCCNCC1)c1ccccc1N2 [8-Fluoro-11-[1,4]diazepam-1-yl-5H-dibenzo[b,e][1,4]diazepine]
Muscarinic M1 receptor
  EC50: 200 nM
  Emax: 25%
Muscarinic M2 receptor
  EC50: 251 nM
  Emax: 67%

## FC(F)(F)c1ccc2c(c1)N=C(N1CCNCC1)c1ccccc1N2 [11-(piperazin-1-yl)-8-trifluoromethyl-5H-dibenzo[b,e][1,4]diazepine]
Muscarinic M1 receptor; R-SAT
  Emax: 53%
Muscarinic M1 receptor; [1]
  EC50: 316 nM
Muscarinic M2 receptor; R-SAT
  Emax: 131%
Muscarinic M2 receptor; [2]
  EC50: 3160 nM

## Clc1ccc2c(c1)Nc1ccc(Cl)cc1C(N1CCNCC1)=N2 [2,7-Dichloro-11-(piperazin-1-yl)-5H-dibenzo[b,e][1,4]diazepine]
Muscarinic M1 receptor; R-SAT
  Emax: -2%
Muscarinic M2 receptor; R-SAT
  Emax: -14%

## Clc1ccc2c(c1)C(N1CCNCC1)=Nc1cc(Br)ccc1N2 [8-Bromo-2-chloro-11-(piperazin-1-yl)-5H-dibenzo[b,e][1,4]diazepine]
Muscarinic M1 receptor; R-SAT
  Emax: 10%
Muscarinic M2 receptor; R-SAT
  Emax: 29%
Muscarinic M2 receptor; [2]
  EC50: 3160 nM

## O=S(=O)(Oc1ccc2c(c1)C(N1CCNCC1)=Nc1ccccc1N2)C(F)(F)F [2-(Trifluoromethanesulfonyloxy)-11-(piperazin-1-yl)-5H-dibenzo[b,e][1,4]diazepine]
Muscarinic M1 receptor; R-SAT
  Emax: -8%
Muscarinic M2 receptor; R-SAT
  Emax: 9%

## Fc1ccc(CC2=Nc3cc(Cl)ccc3Nc3ccccc32)cc1 [8-Chloro-11-(4-fluorobenzyl)-5H-dibenzo[b,e][1,4]diazepine]
Muscarinic M1 receptor; R-SAT
  Emax: 3%
Muscarinic M2 receptor; R-SAT
  Emax: 7%

## Clc1ccc2c(c1)N=C(c1ccncc1)c1ccccc1N2 [8-Chloro-11-(pyridin-4-yl)-5H-dibenzo[b,e][1,4]diazepine]
Muscarinic M1 receptor; R-SAT
  Emax: 6%
Muscarinic M2 receptor; R-SAT
  Emax: 6%

## Cc1ccc2c(c1)C(N1CCNCC1)=Nc1cc(C(F)(F)F)ccc1N2 [2-Methyl-11-(piperazin-1-yl)-8-trifluoromethyl-5H-dibenzo[b,e][1,4]diazepine]
Muscarinic M1 receptor; R-SAT
  Emax: 15%
Muscarinic M2 receptor; R-SAT
  Emax: 14%

## Clc1ccc2c(c1)N=C(N1CCNCC1)c1ccccc1S2 [8-Chloro-11-(piperazin-1-yl)-dibenzo[b,f][1,4]thiazepine]
Muscarinic M1 receptor; R-SAT
  Emax: 11%
Muscarinic M2 receptor; R-SAT
  Emax: 52%
Muscarinic M2 receptor; [2]
  EC50: 1260 nM

## CC1CC(N2CCNCC2)=Nc2cc(Br)ccc2N1 (stereo not drawn) [7-Bromo-2-methyl-(piperazin-1-yl)-2,3-dihydro-1H-benzo[b][1,4]diazepine]
Muscarinic M1 receptor; R-SAT
  Emax: 16%
Muscarinic M2 receptor; R-SAT
  Emax: 23%

## NC1CCN(C2=Nc3cc(Cl)ccc3Nc3ccccc32)C1 (stereo not drawn) [1-(8-Chloro-5H-dibenzo[b,e][1,4]diazepin-11-yl)-pyrrolidin-3-yl-amine]
Muscarinic M1 receptor; R-SAT
  Emax: 8%
Muscarinic M2 receptor; R-SAT
  Emax: 36%
Muscarinic M2 receptor; [2]
  EC50: 3160 nM

## Cc1ccc2c(c1)C(N1CCNCC1)=Nc1cc(Br)ccc1N2 [8-Bromo-2-methyl-11-(piperazin-1-yl)-5H-dibenzo[b,e][1,4]diazepine]
Muscarinic M1 receptor; R-SAT
  Emax: 8%
Muscarinic M2 receptor; R-SAT
  Emax: 44%
